Assay results from patent publication US8435547B2, “Cream for stimulating mitochondrial activity in the skin” (priority 2006, dated 2013).

Columns and labels:
skin = experiment: Skin testing for the cause of the allergic reactions; assay type: in vivo, human; conditions: skin testing in the same volunteer
Source text: When the use of the cream containing these ingredients was discontinued, the allergic lesions cleared completely without scarring.

[1] = cited from earlier work
[2] = oral, human; cited from earlier work

Q: For `CCOC(=O)CC(O)C(=O)OCC` (stereo not shown) [diethyl malate], which “ingredient responsible for the allergic reactions” value (skin) is on record?
A: allergic reactions were due to the diethyl malate

Q: Which results are given for tristeryl glycerol?
A: solubility in alcohol ([1]; alcohol): very slightly soluble; solubility in water ([1]; water): insoluble

Q: Which “dose above which toxicity is evident” value [2] does the source give for vitamin E here?
A: above 1 gm/day
